Columns and labels:
[1] = test system: BTK Activity in RAMOS B Cells; assay: Assay to determine BTK activity in RAMOS B cells (anti-IgM, FLIPR Calcium 6); format: cell-based; conditions: Homo sapiens, Ramos, EC80 anti-IgM, FLIPR calcium read
Protocol: On the day before assay, Ramos B cells were plated in plating medium (RPMI1640 medium containing 1% FBS and 1× pencillin-streptomycin). On the day of the assay, 2× dye solution was prepared following the manual of the FLIRP Calcium 6 Assay Kit: Dilute the dye with assay buffer (20 mM HEPES in 1×HBSS, pH7.4); Add probenecid to the final concentration of 5 mM; vortex vigorously for 1-2 minutes. Cells were collected by centrifuging, and the pellet was resuspended in plating medium. After counting, cells were resuspended at a density of 3×10^6/ml in plating medium. Equal volume of 2× dye solution was added to the cell suspension. Cells were then plated at 20 μl/well into a 384-well poly-D-lysine coated plate. Plate was centrifuged at 1000 rpm for 3 minutes and then incubated at 37° C. for 2 hours followed by an additional 15-minute incubation at 25° C. Compounds were prepared at 3× concentration in dilution buffer (20 mM HEPES and 0.1% BSA in 1×HBSS, pH 7.4). Serially diluted compound was transferred from source plate to a 384-well compound plate by using an Echo 550 (Labcyte). 20 μl/well compound dilution buffer was added to the compound plate and mixed on plate shaker for 2 mins. 4×EC80 of Anti-IgM (Jackson ImmunoResearch) was prepared in dilution buffer and 20 μl/well was added to a new 384-well compound plate. After 60 mins of incubation at 25° C. in the dark; cell plate, compound plate containing 4×EC80 of anti-IgM and FLIPR tips were placed into FLIPR (Molecular Devices). 10 ul/well of 4×EC80 anti-IgM was transferred to the cell plate by FLIPR. Plates were read for 160 sec with 1 sec interval.
With respect to Ramos activity, Table 9 lists activity as follows: • “A” denotes an IC50 of less than 10 nM; • “B” denotes an IC50 of from 10 nM to less than 100 nM; and • “C” denotes and IC50 of 100 nM or more.

BTK [2] = biological target: T1, BTK (Homo sapiens, UniProt Q06187); assay: Assay to determine activity against BTK (EZ reader, FLPeptide); format: biochemical; parameters: purchased Carna; conditions: ATP (1 mM), BTK (2 nM), room temperature for 90 minutes
Protocol: Solutions of compounds (test or control) in DMSO were prepared at the desired concentrations, and serially diluted to 11 concentrations by 3-fold dilution in 384pp-plate using TECAN EVO200. 20 nL of stock were transferred to 384 plate using Echo550. DMSO was used as vehicle control.
Two separate solutions were prepared—an ATP solution containing MgCl2 (10 mM), Brij-35 (0.01%), DTT (2 mM), BSA (0.05%), EGTA (1 mM), HEPE (pH7.5) (50 mM), FLPeptide (6 uM) and ATP (4 mM); and a BTK solution containing MgCl2 (10 mM), Brij-35 (0.01%), DTT (2 mM), BSA (0.05%), EGTA (1 mM), HEPE (pH7.5) (50 mM) and BTK (2.67 nM). […] (Note the final volume of each well was 20 uL containing MgCl2 (10 mM), Brij-35 (0.01%), DTT (2 mM), BSA (0.05%), EGTA (1 mM), HEPE (pH7.5) (50 mM), FLPeptide (1.5 uM), ATP (1 mM) and BTK (2 nM).
The plates were incubated at room temperature for 90 minutes and then stopping buffer added (75 uL, containing 0.5 M EDTA) to terminate the reaction. Samples from each well were analyzed using EZ reader. The % remaining activity was calculated using read conversion ratio (CR) according to the equation: […]
XLFit (equation 201) was used to calculate IC50s by floating both bottom and top.
With respect to BTK activity, Table 4 lists activity as follows: • “A” denotes an IC50 of less than 10 nM, • “B” denotes an IC50 of from 10 nM to less than 100 nM; and • “C” denotes and IC50 of 100 nM or more.

BTK [3] = biological target: T1, BTK; assay: Assay to determine BTK inactivation rate in human whole blood (ELISA of unoccupied BTK); format: cell-based; parameters: Human whole blood is obtained from StemExpress; tissue StemExpress; host or cells: human whole blood; conditions: 37° C., 5, 15, 30, 60 minutes; for kinact/KI: read-out: BTK hWB Kinact/Ki
Protocol: Human Whole Blood Compound Treatment and Lysis
Human whole blood is obtained from StemExpress and kept at ambient temperature until the time of the experiment. […] This is prepared fresh each experimental day. […] Compounds are reconstituted to stocks of 10 mM and are diluted in two-fold serial dilutions to generate an 8-point curve in DMSO, with the last point being DMSO only, creating a 100× dilution series. A working 10× dilution series is created using 1.0 μL of the prepared DMSO titration, 100×, into […] 1×PBS in order to keep the DMSO constant. The human whole blood is added in the volume of 225 μL per well in a new 96w v-bottom plate, where one column of eight wells is sufficient for testing one compound. For compound treatment, 25 μL of 10× dilution series in PBS is added to the 225 μL whole blood, followed by briefly pipetting up and down twice. The plates are covered with lids and incubated at 37° C. for 5, 15, 30, 60 minutes. At each timepoint, 30 μL of treated blood is pulled from each column and added to preloaded collection plates that contain 30 μL of supplemented lysis buffer and mixed briefly. The collected and lysed samples shake on rotator for 60 minutes at room temperature. These samples are used fresh for detection via ELISA, and remaining sample is frozen at −80° C. if a repeat is necessary.
ELISA: Determining Amount of Unoccupied BTK
All streptavidin pre-coated plates (R&D Systems, #CP004) are brought to room temperature while samples are lysing. Assay Buffer 1, 1×PBS+0.05% Tween 20+1% BSA is prepared and stored at 4° C. when not in use. Using this Assay Buffer, assay buffer+1× protease/phosphatase inhibitor cocktail (PICs) is prepared in the amount needed for all samples. Assay Buffer+PICs in the volume of 90 μL/well is added to the ELISA plate. Lysed blood sample (10 μL) is added to the ELISA plate. BTK recombinant protein dilutions are prepared in assay buffer+PICS for use as a μM). The standard is loaded into the ELISA plate at 100 μL/well, in duplicate. These samples and standards remain in the plate, sealed, overnight at 4° C. The following day, the plate is washed four times with 1× Wash Buffer (1×PBS+0.05% Tween 20) using a plate washer. The plate is inverted to expel all fluid each time and blotted on clean paper towels to remove remaining liquid. Assay Buffer 2 is prepared (1×PBS+0.05% Tween 20+0.05% BSA) and kept at 4° C. when not in use. […] Diluted a-BTK antibody is added at 100 μl/well. The plate is covered with adhesive film and incubated for 90 minutes at room temperature. The plate is washed four times with 1× Wash Buffer (1×PBS+0.05% Tween 20) using a plate washer. The plate is inverted to expel all fluid each time and blotted on clean paper towels to remove remaining liquid. […] The diluted antibody is added at 100 μl/well. The plate is covered with adhesive film and incubated for one hour at room temperature. The plate is washed four times with 1× Wash Buffer using a plate washer. The plate is inverted to expel all fluid each time and blotted on clean paper towels to remove remaining liquid. […] The plate is incubated at room temperature in the dark for −5-10 minutes. The reaction is stopped by adding 50 μl/well 2N sulfuric acid (H2SO4) (R&D Systems, #DY994). The plate is read in a plate reader at the wavelengths […] and 570 nm (correction wavelength). Using Graphpad Prism, an XY table+graph is created, listing 0-60 minutes as X axis and concentration as Y axis. A One Phase Decay model fit is applied to the data. Checking Results table, the K values are obtained and new XY table+graph are created. Concentration is assigned to the X axis and K values from first analysis are entered. The Michaelis-Menten equation is applied to the data.

[4] = Plasma and total brain concentrations at 1 h post a single oral administration to female C57BL/6 mice; format: in vivo; conditions: mouse, 1 h post single oral 10 mg/kg, LC-MS/MS, read-out: Brain:plasma ratio
Protocol: Determination of Plasma and Total Brain Concentrations at 1 h Post a Single Oral Administration of Test Compound to Female C57BL/6 Mice
The appropriate amount of test article was dissolved 10% dimethylacetamide (DMA)/90% (20% hydroxypropyl-b-cyclodextrin (HP-β-CD) w/v in water to obtain a final concentration of 1 mg/mL for oral dosing. Sonication, vortex, and homogenization was used as needed. Three female C57BL/6 mice aged 7-9 weeks (20-30 grams) were dosed by oral gavage 10 mg/kg solution of the test article.
Concentrations of representative test compounds in the plasma and brain samples (using plasma and brain homogenate standard curve for all samples appropriately) were analyzed using LC-MS/MS. With respect to the brain:plasma ratio, Table 11 lists the results as follows: • “A” denotes a ratio >0.5; • “B” denotes a ratio between 0.1 and 0.5; and • “C” denotes a ratio <0.1.

T1 sequence (Q06187 whole entry): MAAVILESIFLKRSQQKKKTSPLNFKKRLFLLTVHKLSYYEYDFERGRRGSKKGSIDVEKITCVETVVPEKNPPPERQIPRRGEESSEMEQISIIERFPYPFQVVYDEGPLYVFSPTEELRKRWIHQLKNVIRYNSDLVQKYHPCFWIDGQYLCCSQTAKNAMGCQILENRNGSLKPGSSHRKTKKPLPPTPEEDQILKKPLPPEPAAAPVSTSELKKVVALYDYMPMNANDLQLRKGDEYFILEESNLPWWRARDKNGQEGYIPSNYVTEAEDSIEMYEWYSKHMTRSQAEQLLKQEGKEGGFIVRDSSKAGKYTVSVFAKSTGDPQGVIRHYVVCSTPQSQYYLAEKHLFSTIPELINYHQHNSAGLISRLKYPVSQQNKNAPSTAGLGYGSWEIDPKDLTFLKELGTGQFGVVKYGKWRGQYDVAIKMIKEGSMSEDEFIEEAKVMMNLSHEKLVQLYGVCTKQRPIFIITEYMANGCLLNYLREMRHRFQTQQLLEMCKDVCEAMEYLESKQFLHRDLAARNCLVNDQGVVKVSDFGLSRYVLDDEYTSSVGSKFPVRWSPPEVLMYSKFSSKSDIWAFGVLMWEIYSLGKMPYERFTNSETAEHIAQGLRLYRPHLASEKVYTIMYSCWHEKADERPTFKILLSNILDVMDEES

| SMILES | IC50 [1] [nM] | IC50 (BTK [2]) [nM] | BTK hWB Kinact/Ki (BTK [3]) | Kp at 1 h [4] | kinact/KI (BTK [3]) [M⁻¹ s⁻¹] |
| --- | --- | --- | --- | --- | --- |
| C=CC(=O)N1CCC2CCN(c3c(F)cc(C(N)=O)c4[nH]c(C)c(C)c34)CC21 (single isomer, unassigned) [Compound 32a, 4-(1-acryloyloctahydro-6H-pyrrolo[2,3-c]pyridin-6-yl)-5-fluoro-2,3-dimethyl-1H-indole-7-carboxamide] | 10 to 100 | 10 to 100 | A (a Kinact/Ki >10×10^−4 nM^−1 min^−1) | – | – |
| CC#CC(=O)N1CCC[C@H]1c1nc(-c2ccc(C(=O)Nc3ccccn3)cc2)c2c(N)nccn12 [Acalabrutinib, reference compound] | – | – | – | < 0.1 | < 1670 |
| CC#CC(=O)N[C@H]1CCCN(c2c(F)cc(C(N)=O)c3[nH]c(C)c(C)c23)C1 [Branebrutinib, reference compound] | – | – | – | < 0.1 | > 16700 |
| C=CC(=O)N1CCC[C@H](c2c(F)cc(C(N)=O)c3[nH]c(C)c(Cl)c23)C1 [Compound 2b, (R)-4-(1-acryloylpiperidin-3-yl)-3-chloro-5-fluoro-2-methyl-1H-indole-7-carboxamide] | 10 to 100 | 10 to 100 | – | – | 1670 to 16700 |
| C=CC(=O)N1CCC=C(c2c(F)c(F)c(C(N)=O)c3[nH]c(C)c(Cl)c23)C1 [Compound 4, 4-(1-acryloyl-1,2,5,6-tetrahydropyridin-3-yl)-3-chloro-5,6-difluoro-2-methyl-1H-indole-7-carboxamide] | < 10 | < 10 | – | – | > 16700 |
| C=CC(=O)N1CCC[C@H](c2c(F)c(F)c(C(N)=O)c3[nH]c(C)c(Cl)c23)C1 [Compound 15, (R)-4-(1-acryloylpiperidin-3-yl)-3-chloro-5,6-difluoro-2-methyl-1H-indole-7-carboxamide] | 10 to 100 | 10 to 100 | – | – | > 16700 |
| C=CC(=O)N1CCc2c(cccc2-c2c(F)cc(C(N)=O)c3[nH]c(C)c(Cl)c23)C1 [Compound 20a, 4-(2-acryloyl-1,2,3,4-tetrahydroisoquinolin-5-yl)-3-chloro-5-fluoro-2-methyl-1H-indole-7-carboxamide] | < 10 | < 10 | – | – | < 1670 |
| CC#CC(=O)N[C@H]1C[C@H](F)CN(c2c(F)cc(C(N)=O)c3[nH]c(C)c(Cl)c23)C1 [Compound 28, 4-((3S,5S)-3-(but-2-ynamido)-5-fluoropiperidin-1-yl)-3-chloro-5-fluoro-2-methyl-1H-indole-7-carboxamide] | < 10 | < 10 | – | – | 1670 to 16700 |
| C=CC(=O)N1CCC2CCN(c3c(F)cc(C(N)=O)c4[nH]c(C)c(C)c34)CC21 (centres unmarked) [Compound 32, 4-(1-acryloyloctahydro-6H-pyrrolo[2,3-c]pyridin-6-yl)-5-fluoro-2,3-dimethyl-1H-indole-7-carboxamide] | 10 to 100 | 10 to 100 | – | – | < 1670 |
| C=CC(=O)N[C@H]1C[C@H](F)CN(c2c(F)cc(C(N)=O)c3[nH]c(C)c(C)c23)C1 [Compound 36, 4-((3S,5S)-3-acrylamido-5-fluoropiperidin-1-yl)-5-fluoro-2,3-dimethyl-1H-indole-7-carboxamide] | < 10 | < 10 | – | – | > 16700 |
| C=CC(=O)N1CCC[C@@H](n2nc(-c3ccc(Oc4ccccc4)cc3)c3c(N)ncnc32)C1 [Ibrutinib, reference compound] | – | – | – | < 0.1 | – |
